Laboratory results as given in patent US9474911B2, “Delivery of large molecular weight biologically active substances” (PhotoKinetix Holdings Inc., priority 2011, dated 2016).
Where two headings read alike, the source gives them in different places.

Assays:
[1] = diabetic rats; photokinetic delivery (Kulp et al., 2010); cited from earlier work
[2] = 450 nm light pulsed at 100 cps; 24 hours; p<0.05
[3] = 24 hours

In the case of “insulin: insulin, molecular weight of about 5,730 Da”, the blood sugar levels [1] is listed as “blood sugar levels were reduced”.
In the case of “Hyaluronic acid [69 kDa hyaluronic acid]”, the “intradermal deposition, photokinetic compared to passive control” value [2] is reported as “significantly higher intradermal deposition”, the “transdermal flux rate, 24 cps compared to 100 cps” value ([3]; 405 nm light, p<0.05) is reported as “significantly higher than 405 nm light pulsed at 100 cps” and the “transdermal flux rate, photokinetic compared to passive permeation” value [3] is reported as “significantly higher than passive permeation”.
With “HGH: Human growth hormone with a molecular weight of 22,124 Da” the “transdermal permeation flux of HGH, photokinetic compared to passive permeation” value ([3]; 350, 390, 405 and 450 nm at 24 cps, donor 270 ng/ml, p<0.001) was “significantly increased”.
With “Hyaluronic acid [2,100 kDa hyaluronic acid]” the “transdermal flux rate, photokinetic compared to passive permeation control” value ([3]; 390, 405 and 450 nm at 24 cps and 405 nm at 100 cps, p<0.05) was “significantly higher than passive permeation control samples” and the “transdermal flux rate, 24 cps compared to 100 cps” value ([3]; 390 nm, 405 nm and 436 nm light, p<0.05) was “significantly higher than 390 nm, 405 nm, and 436 nm light pulsed at 100 cps”.
